In one assay the target is Wee1 (h) (Homo sapiens, UniProt P30291). Description: Wee1 kinase (h) detection method, [γ-33P]-ATP filter assay. It counts as biochemical.
The test system of another assay is LoVo cells. Description: MTT based cell viability assay on LoVo cells. Particulars: Homo sapiens, LoVo, 72 h, 3 d, read-out: IC50, growth inhibition of LoVo cells. A digest of the protocol:
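Inhibition of LoVo proliferation was derived as IC50 from a sigmoidal dose-response fit of cell survival. Readout was MTT (0.5 mg/mL, 4 h) with absorbance at 552/630/690 nm, after 3-day treatment at 37 °C. Eight-point series from 10 μM to 0.01 μM, DMSO control, 1% DMSO final.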

The test system of a further assay is NCI-H1299 cells. Kind of assay: MTT based cell viability assay on NCI-H1299 cells. Particulars: Homo sapiens, read-out: IC50, growth inhibition of NCI-H1299 cells. A digest of the protocol:
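NCI-H1299 cells (1000/well, settled overnight) were exposed for 3 d at 37 °C, 5% CO2, to an eight-point series of 10 μM to 0.01 μM plus DMSO blank, as prepared in DMSO (final DMSO 1‰). MTT (0.5 mg/mL, 4 h) was read at 552/630/690 nm. IC50 came from sigmoidal dose-response fits of survival.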

pIC50: −log10 of the molar value. Read-outs that look alike come from different tables or passages of the source.

Wee1 (h), sequence (P30291 whole entry): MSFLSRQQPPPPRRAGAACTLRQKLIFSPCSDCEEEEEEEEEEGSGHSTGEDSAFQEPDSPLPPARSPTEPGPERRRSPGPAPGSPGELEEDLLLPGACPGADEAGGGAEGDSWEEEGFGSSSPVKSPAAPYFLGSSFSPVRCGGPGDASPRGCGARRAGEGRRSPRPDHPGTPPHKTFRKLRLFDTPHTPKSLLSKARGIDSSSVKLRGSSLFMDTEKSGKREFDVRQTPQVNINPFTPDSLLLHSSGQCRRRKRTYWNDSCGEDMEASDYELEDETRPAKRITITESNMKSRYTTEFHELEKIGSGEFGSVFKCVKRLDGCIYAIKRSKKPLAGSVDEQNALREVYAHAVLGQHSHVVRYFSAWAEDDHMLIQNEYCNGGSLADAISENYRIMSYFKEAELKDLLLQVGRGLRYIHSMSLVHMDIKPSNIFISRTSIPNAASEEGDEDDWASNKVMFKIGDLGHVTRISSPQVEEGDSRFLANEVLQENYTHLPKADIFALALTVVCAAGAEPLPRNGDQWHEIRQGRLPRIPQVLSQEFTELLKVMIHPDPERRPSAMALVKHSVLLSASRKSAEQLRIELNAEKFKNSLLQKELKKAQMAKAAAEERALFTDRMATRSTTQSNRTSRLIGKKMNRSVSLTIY

As usually defined, the pIC50 is the negative decadic logarithm of the IC50, by convention in mol/L. Turning to `Cc1cc(Nc2ncc3c(n2)N2CCN=C2N(c2c(Cl)cccc2C(F)(F)F)C3=O)ccc1N1CCN(C)CC1` [Example 80, 6-(2-Chloro-6-(trifluoromethyl)phenyl)-2-((3-methyl-4-(4-methylpiperazin-1-yl)phenyl)amino)-8,9-dihydroimidazo[1,2-a]pyrimido[5,4-e]pyrimidin-5(6H)-one], the “Inh. (%) of Wee1 kinase enzyme activity” value on Wee1 (h) (C 1 μm compound) worked out at 80%. Also, the pIC50 with LoVo cells was 6.27; in the assay on NCI-H1299 cells (NCI-H1299, NCI-H1299 cells), 6.01.

For the molecule `CN1CCN(c2c(F)cc(Nc3ncc4c(n3)N3CCN=C3N(c3c(Cl)cccc3Cl)C4=O)cc2Cl)CC1` [Example 147, 6-(2,6-Dichlorophenyl)-2-((3-chloro-5-fluoro-4-(4-methylpiperazin-1-yl)phenyl)amino)-8,9-dihydroimidazo[1,2-a]pyrimido[5,4-e]pyrimidin-5(6H)-one], the “Inh. (%) of Wee1 kinase enzyme activity” value is reported as 42% at Wee1 (h) (C 0.01 μm compound), 86% on Wee1 (h) (C 0.1 μm compound) and 96% at Wee1 (h) (C 1 μm compound). Also, the pIC50 with LoVo cells is 7.04; with NCI-H1299 cells (NCI-H1299, NCI-H1299 cells) it was 6.68.

As for `C[C@@H]1CN(c2ccc(Nc3ncc4c(n3)N3CCN=C3N(c3c(F)cccc3Cl)C4=O)cc2)C[C@H](C)N1C` [Example 34, 6-(2-Chloro-6-fluorophenyl)-2-((4-((3S,5R)-3,4,5-trimethylpiperazin-1-yl)phenyl)amino)-8,9-dihydroimidazo[1,2-a]pyrimido[5,4-e]pyrimidin-5(6H)-one], the “Inh. (%) of Wee1 kinase enzyme activity” value at Wee1 (h) (C 0.01 μm compound) is 38%; at Wee1 (h) (C 0.1 μm compound), 93%; at Wee1 (h) (C 1 μm compound), 97%. Besides, the values for the pIC50 in the assay on LoVo cells and in the assay on NCI-H1299 cells (NCI-H1299 cells) were 6.46 and 6.33, respectively.

Regarding `CN1CCN(c2ccc(Nc3ncc4c(n3)N3CCN=C3N(C3CCCCC3)C4=O)cc2)CC1` [Example 21, 6-Cyclohexyl-2-((4-(4-methylpiperazin-1-yl)phenyl)amino)-8,9-dihydroimidazo[1,2-a]pyrimido[5,4-e]pyrimidin-5(6H)-one], the “Inh. (%) of Wee1 kinase enzyme activity” value at Wee1 (h) (C 1 μm compound) turned out to be 9%. Besides, the pIC50 was 5.67 with LoVo cells and 5.48 in the assay on NCI-H1299 cells (NCI-H1299 cells).

Regarding `CC(C)N1[C@H](C)CN(c2ccc(Nc3ncc4c(n3)N3CCN=C3N(c3c(F)cccc3Cl)C4=O)cc2)C[C@@H]1C` [Example 35, 6-(2-Chloro-6-fluorophenyl)-2-((4-((3S,5R)-4-isopropyl-3,5-dimethylpiperazin-1-yl)phenyl)amino)-8,9-dihydroimidazo[1,2-a]pyrimido[5,4-e]pyrimidin-5(6H)-one], the results for the “Inh. (%) of Wee1 kinase enzyme activity” value at Wee1 (h) (C 0.01 μm compound), on Wee1 (h) (C 0.1 μm compound) and on Wee1 (h) (C 1 μm compound) were 27%, 82% and 100%, respectively. Also, the pIC50 with LoVo cells was 6.58; in the assay on NCI-H1299 cells (NCI-H1299 cells) it was 6.54.

As to `CN1CCN(c2ccc(Nc3ncc4c(n3)N3CCN=C3N(c3c(F)cccc3Cl)C4=O)c(F)c2)CC1` [Example 36, 6-(2-Chloro-6-fluorophenyl)-2-((2-fluoro-4-(4-methylpiperazin-1-yl)phenyl)amino)-8,9-dihydroimidazo[1,2-a]pyrimido[5,4-e]pyrimidin-5(6H)-one], at Wee1 (h) (C 1 μm compound), the “Inh. (%) of Wee1 kinase enzyme activity” value is 0%. The figures for the pIC50 with LoVo cells and in the assay with NCI-H1299 cells (NCI-H1299 cells) were below 4.00 and below 5.00, respectively.

Consider `Cc1cc(Nc2ncc3c(n2)N2CCN=C2N(c2c(Cl)cccc2Cl)C3=O)cc2c1C(C)(C)CN(C)C2` [Example 133, 6-(2,6-Dichlorophenyl)-2-((2,4,4,5-tetramethyl-1,2,3,4-tetrahydroisoquinolin-7-yl)amino)-8,9-dihydroimidazo[1,2-a]pyrimido[5,4-e]pyrimidin-5(6H)-one], for which, on Wee1 (h) (C 1 μm compound), the “Inh. (%) of Wee1 kinase enzyme activity” value came to 95%. Further, the pIC50 in the assay on LoVo cells is 6.78; in the assay with NCI-H1299 cells (NCI-H1299, NCI-H1299 cells), 7.34.

As for `CN1Cc2cc(Nc3ncc4c(n3)N3CCN=C3N(c3c(Cl)cccc3Cl)C4=O)ccc2C(C)(C)C1` [Example 13, 6-(2,6-Dichlorophenyl)-2-((2,4,4-trimethyl-1,2,3,4-tetrahydroisoquinolin-7-yl)amino)-8,9-dihydroimidazo[1,2-a]pyrimido[5,4-e]pyrimidin-5(6H)-one], the results for the “Inh. (%) of Wee1 kinase enzyme activity” value at Wee1 (h) (C 0.01 μm compound), at Wee1 (h) (C 0.1 μm compound) and at Wee1 (h) (C 1 μm compound) were 29%, 87% and 100%, respectively. In addition, the negative logarithm of the IC50 (pIC50) in the assay with LoVo cells is 7.12; in the assay with NCI-H1299 cells (NCI-H1299 cells) it was 6.99.

Take `C[C@@H]1CN(c2ccc(Nc3ncc4c(n3)N3CCN=C3N(c3c(Cl)cccc3Cl)C4=O)cc2Cl)C[C@H](C)N1C` [Example 72, 6-(2,6-Dichlorophenyl)-2-((3-chloro-4-((3S,5R)-3,4,5-trimethylpiperazin-1-yl)phenyl)amino)-8,9-dihydroimidazo[1,2-a]pyrimido[5,4-e]pyrimidin-5(6H)-one]: the “Inh. (%) of Wee1 kinase enzyme activity” value came to 22% at Wee1 (h) (C 0.01 μm compound), 75% at Wee1 (h) (C 0.1 μm compound) and 97% at Wee1 (h) (C 1 μm compound). Besides, the negative logarithm of the IC50 (pIC50) is 7.23 in the assay with LoVo cells and 6.48 in the assay on NCI-H1299 cells (NCI-H1299 cells).

As to `CN1CCN(c2ccc(Nc3ncc4c(n3)N3CCN=C3N(c3ccccn3)C4=O)cc2)CC1` [Example 97, 6-(Pyridin-2-yl)-2-((4-(4-methylpiperazin-1-yl)phenyl)amino)-8,9-dihydroimidazo[1,2-a]pyrimido[5,4-e]pyrimidin-5(6H)-one], on Wee1 (h) (C 1 μm compound), the “Inh. (%) of Wee1 kinase enzyme activity” value is reported as 9%. The pIC50 was below 4.00 with LoVo cells and below 5.00 with NCI-H1299 cells (NCI-H1299 cells).

As for `CN1CCC(c2ccc(Nc3ncc4c(n3)N3CCN=C3N(c3c(F)cccc3Cl)C4=O)cc2)CC1` [Example 114, 6-(2-Chloro-6-fluorophenyl)-2-((4-(1-methylpiperidin-4-yl)phenyl)amino)-8,9-dihydroimidazo[1,2-a]pyrimido[5,4-e]pyrimidin-5(6H)-one], the “Inh. (%) of Wee1 kinase enzyme activity” value on Wee1 (h) (C 1 μm compound) is 98%. In addition, the pIC50 is 6.98 in the assay with LoVo cells and 6.63 in the assay with NCI-H1299 cells (NCI-H1299, NCI-H1299 cells).

Consider `Cc1cc(Nc2ncc3c(n2)N2CCN=C2N(c2c(Cl)cccc2Cl)C3=O)cc(C)c1N1CCN(C)CC1` [Example 158, 6-(2,6-Dichlorophenyl)-2-((3,5-dimethyl-4-(4-methylpiperazin-1-yl)phenyl)amino)-8,9-dihydroimidazo[1,2-a]pyrimido[5,4-e]pyrimidin-5(6H)-one], for which the entries for the “Inh. (%) of Wee1 kinase enzyme activity” value at Wee1 (h) (C 0.01 μm compound), on Wee1 (h) (C 0.1 μm compound) and on Wee1 (h) (C 1 μm compound) were 27%, 84% and 95%, respectively. Further, the negative-log IC50 (pIC50) in the assay on LoVo cells is 7.23; in the assay with NCI-H1299 cells (NCI-H1299, NCI-H1299 cells) it was 6.98.

For `CN1CCN(c2ccc(Nc3ncc4c(n3)N3CCN=C3N(c3c(F)cccc3Cl)C4=O)cc2C(F)(F)F)CC1` [Example 48, 6-(2-Chloro-6-fluorophenyl)-2-((4-(4-methylpiperazin-1-yl)-3-(trifluoromethyl)phenyl)amino)-8,9-dihydroimidazo[1,2-a]pyrimido[5,4-e]pyrimidin-5(6H)-one], the “Inh. (%) of Wee1 kinase enzyme activity” value on Wee1 (h) (C 0.01 μm compound) is 29%; on Wee1 (h) (C 0.1 μm compound), 75%; at Wee1 (h) (C 1 μm compound) it was 91%. For the same molecule, the pIC50 with LoVo cells was 6.93; in the assay with NCI-H1299 cells (NCI-H1299, NCI-H1299 cells), 5.95.

Consider `CN1CCN(c2c(Cl)cc(Nc3ncc4c(n3)N3CCN=C3N(c3c(Cl)cccc3Cl)C4=O)cc2C(F)(F)F)CC1` [Example 152, 6-(2,6-Dichlorophenyl)-2-((3-chloro-4-(4-methylpiperazin-1-yl)-5-(trifluoromethyl)phenyl)amino)-8,9-dihydroimidazo[1,2-a]pyrimido[5,4-e]pyrimidin-5(6H)-one], for which the “Inh. (%) of Wee1 kinase enzyme activity” value on Wee1 (h) (C 1 μm compound) stood at 88%. The pIC50 with LoVo cells is 6.86; in the assay on NCI-H1299 cells (NCI-H1299, NCI-H1299 cells), 5.71.

The record behind these values is patent US11345711B2, “8,9-dihydroimidazo[1,2-a]pyrimido[5,4-e]pyrimidin-5(6H)-ones” (IMPACT THERAPEUTICS (SHANGHAI), INC, priority 2016, dated 2022).
